# Test results reported in patent publication US6562849B1, “Amine derivative compounds” (Sankyo Company, Limited, priority 1999, dated 2003).
# Where a name gives a salt, the structure may show the parent alone.
# Tested on: KK mice (age 4-5 months) with diabetes
# Test: Blood sugar lowering effect in KK mice with diabetes
# Assay type: in vivo
# Settings: Mus musculus, po, 72 h, powder diet containing 0.01% of the test compound for 3 days, plasma glucose vs control group, groups of 4 mice, read-out: Blood sugar decrease rate (%)
# Source text: [Test Example] Blood Sugar Lowering Effect
# Blood samples were collected from the caudal vein of KK mice (age 4-5 months) with diabetes followed by measurement of their blood sugar levels. Next, after assigning the mice to groups (of 4 mice each) so that the mean blood sugar levels of each group were the same, mouse laboratory powder diet (F-1, Funabashi Farms), prepared so as to contain 0.01% of the test compound, was given to the mice for 3 days. The groups of mice that were given test compound were designated as the drug dose groups. It should be noted that a group that was given laboratory diet not containing the test compound was designated as the control group. Blood samples were collected from the caudal vein of the mice 3 days later and the glucose concentration of the plasma obtained by centrifugal separation was measured with a glucose analyzer (Glucoloader, A & T Corp.). The mean decrease of blood sugar rate (%) was determined according to the following equation.
# Blood sugar decrease rate (%)=(mean blood sugar value of control group−mean blood sugar value […] of drug dose group)×100/(blood sugar value of control group)
row,SMILES,inhibition in vivo at 0.01 % in diet [%]
1,"Cn1c(COc2ccc(CC3SC(=O)NC3=O)cc2)nc2ccc(Oc3ccc4cccc(NC(=S)NCc5ccccc5)c4c3)cc21 (centres unmarked) [Example 44, 1-Benzyl-3-(7-[2-[4-(2,4-dioxothiazolidin-5-ylmethyl)phenoxymethyl]-1-methyl-1H-benzimidazol-6-yloxy]naphthalen-1-yl)thiourea]",47.2
2,"Cn1c(COc2ccc(CC3SC(=O)NC3=O)cc2)nc2ccc(Oc3ccc(NC(=S)NCc4ccccc4)cc3)cc21 (centres unmarked) [Example 11, 1-Benzyl-3-(4-[2-[4-(2,4-dioxothiazolidin-5-ylmethyl)phenoxymethyl]-1-methyl-1H-benzimidazol-6-yloxy]phenyl)thiourea]",32.9
3,"Cn1c(COc2ccc(CC3SC(=O)NC3=O)cc2)nc2ccc(Oc3ccc(CCNC(=O)c4cccnc4)cc3)cc21 (centres unmarked) [Example 63, N-[2-[4-[2-[4-(2,4-Dioxothiazolidin-5-ylmethyl)phenoxymethyl]-1-methyl-1H-benzimidazol-6-yloxy]phenyl]ethyl]nicotinamide dihydrochloride]",55.7
4,"Cn1c(COc2ccc(CC3SC(=O)NC3=O)cc2)nc2ccc(Oc3ccc(CCNC(=O)Cc4cccc(Cl)c4)cc3)cc21 (centres unmarked) [Example 64, 2-(3-Chlorophenyl)-N-[2-[4-[2-[4-(2,4-dioxothiazolidin-5-ylmethyl)phenoxymethyl]-1-methyl-1H-benzimidazol-6-yloxy]phenyl]ethyl]acetamide hydrochloride]",43.5
5,"Cc1cc(Oc2ccc3nc(COc4ccc(CC5SC(=O)NC5=O)cc4)n(C)c3c2)cc(C)c1NC(=O)Nc1ccc([N+](=O)[O-])cc1 (centres unmarked) [Example 3, 1-(4-[2-[4-(2,4-Dioxothiazolidin-5-ylmethyl)phenoxymethyl]-1-methyl-1H-benzimidazol-6-yloxy]-2,6-dimethylphenyl)-3-(4-nitrophenyl)urea]",49.9
6,"Cc1cc(Oc2ccc3nc(COc4ccc(CC5SC(=O)NC5=O)cc4)n(C)c3c2)cc(C)c1NC(=S)Nc1ccc(Cl)cc1 (centres unmarked) [Example 2, 1-(4-Chlorophenyl)-3-(4-[2-[4-(2,4-dioxothiazolidin-5-ylmethyl)phenoxymethyl]-1-methyl-1H-benzimidazol-6-yloxy]-2,6-dimethylphenyl)thiourea]",48.9
7,"Cn1c(COc2ccc(CC3SC(=O)NC3=O)cc2)nc2ccc(Oc3ccc(CCNC(=O)NC45CC6CC(CC(C6)C4)C5)cc3)cc21 (centres unmarked) [Example 33, 1-(Adamant-1-yl)-3-[2-(4-[2-[4-(2,4-dioxothiazolidin-5-ylmethyl)phenoxymethyl]-1-methyl-1H-benzimidazol-6-yloxy]phenyl)ethyl]urea dihydrochloride]",30.4
8,"Cn1c(COc2ccc(CC3SC(=O)NC3=O)cc2)nc2ccc(Oc3ccc(NC(=O)c4ccncc4)cc3)cc21 (centres unmarked) [Example 55, N-[4-[2-[4-(2,4-Dioxothiazolidin-5-ylmethyl)phenoxymethyl]-1-methyl-1H-benzimidazol-6-yloxy]phenyl]isonicotinamide]",53.8
9,"Cn1c(COc2ccc(CC3SC(=O)NC3=O)cc2)nc2ccc(Oc3ccc(CCNC(=O)Nc4ccc(F)cc4F)cc3)cc21 (centres unmarked) [Example 31, 1-(2,4-Difluorophenyl)-3-[2-(4-[2-[4-(2,4-dioxothiazolidin-5-ylmethyl)phenoxymethyl]-1-methyl-1H-benzimidazol-6-yloxy]phenyl)ethyl]urea]",50.5
10,"Cn1c(COc2ccc(CC3SC(=O)NC3=O)cc2)nc2ccc(Oc3ccc(NC(=O)Nc4ccccc4)cc3)cc21 (centres unmarked) [Example 4, 1-(4-[2-[4-(2,4-Dioxothiazolidin-5-ylmethyl)phenoxymethyl]-1-methyl-1H-benzimidazol-6-yloxy]phenyl)-3-phenylurea]",48.6
11,"CCCCCCN(C(=O)Nc1ccc(F)cc1)c1ccc(Oc2ccc3nc(COc4ccc(CC5SC(=O)NC5=O)cc4)n(C)c3c2)cc1 (centres unmarked) [Example 16, 1-(4-[2-[4-(2,4-Dioxothiazolidin-5-ylmethyl)phenoxymethyl]-1-methyl-1H-benzimidazol-6-yloxy]phenyl)-1-n-hexyl-3-(4-fluorophenyl)urea]",42.9
12,"CCNC(=O)Nc1ccc(Oc2ccc3nc(COc4ccc(CC5SC(=O)NC5=O)cc4)n(C)c3c2)cc1 (centres unmarked) [Example 12, 1-(4-[2-[4-(2,4-Dioxothiazolidin-5-ylmethyl)phenoxymethyl]-1-methyl-1H-benzimidazol-6-yloxy]phenyl)-3-ethylurea]",56.1
13,"Cn1c(COc2ccc(CC3SC(=O)NC3=O)cc2)nc2ccc(Oc3ccc(NS(C)(=O)=O)cc3)cc21 (centres unmarked) [Example 18, N-(4-[2-[4-(2,4-Dioxothiazolidin-5-ylmethyl)phenoxymethyl]-1-methyl-1H-benzimidazol-6-yloxy]phenyl)methanesulfonamide]",61
14,"Cn1c(COc2ccc(CC3SC(=O)NC3=O)cc2)nc2ccc(OCCc3ccc(NC(=O)Nc4ccc(C(F)(F)F)cc4)cc3)cc21 (centres unmarked) [Example 37, 1-[4-(2-[2-[4-(2,4-Dioxothiazolidin-5-ylmethyl)phenoxymethyl]-1-methyl-1H-benzimidazol-6-yloxy]ethyl)phenyl]-3-[4-(trifluoromethyl)phenyl]urea]",35.2
15,"CC(=O)Nc1ccc(Oc2ccc3nc(COc4ccc(CC5SC(=O)NC5=O)cc4)n(C)c3c2)cc1 (centres unmarked) [Example 52, N-[4-[2-[4-(2,4-Dioxothiazolidin-5-ylmethyl)phenoxymethyl]-1-methyl-1H-benzimidazol-6-yloxy]phenyl]acetamide]",58.5
16,"Cn1c(COc2ccc(CC3SC(=O)NC3=O)cc2)nc2ccc(Oc3ccc4cccc(NC(=O)NCc5ccccc5)c4c3)cc21 (centres unmarked) [Example 45, 1-Benzyl-3-(7-[2-[4-(2,4-dioxothiazolidin-5-ylmethyl)phenoxymethyl]-1-methyl-1H-benzimidazol-6-yloxy]naphthalen-1-yl)urea]",54.1
17,"Cn1c(COc2ccc(CC3SC(=O)NC3=O)cc2)nc2ccc(Oc3ccc(NC(=O)NC45CC6CC(CC(C6)C4)C5)cc3)cc21 (centres unmarked) [Example 14, 1-(Adamant-1-yl)-3-(4-[2-[4-(2,4-dioxothiazolidin-5-ylmethyl)phenoxymethyl]-1-methyl-1H-benzimidazol-6-yloxy]phenyl)urea]",63.2
18,"Cn1c(COc2ccc(CC3SC(=O)NC3=O)cc2)nc2ccc(Oc3ccc(NC(=O)c4cccnc4)cc3)cc21 (centres unmarked) [Example 56, N-[4-[2-[4-(2,4-Dioxothiazolidin-5-ylmethyl)phenoxymethyl]-1-methyl-1H-benzimidazol-6-yloxy]phenyl]nicotinamide]",63.6
19,"Cn1c(COc2ccc(CC3SC(=O)NC3=O)cc2)nc2ccc(Oc3ccc(NC(=O)c4ccccc4)cc3)cc21 (centres unmarked) [Example 53, N-[4-[2-[4-(2,4-Dioxothiazolidin-5-ylmethyl)phenoxymethyl]-1-methyl-1H-benzimidazol-6-yloxy]phenyl]benzamide]",59.6
20,"Cn1c(COc2ccc(CC3SC(=O)NC3=O)cc2)nc2ccc(Oc3ccc(NC(=O)c4ccc5ccccc5c4)cc3)cc21 (centres unmarked) [Example 60, N-[4-[2-[4-(2,4-Dioxothiazolidin-5-ylmethyl)phenoxymethyl]-1-methyl-1H-benzimidazol-6-yloxy]phenyl]naphthalene-2-carboxamide]",49.8
21,"Cn1c(COc2ccc(CC3SC(=O)NC3=O)cc2)nc2ccc(Oc3ccc(NC(=S)NC4CCCCC4)cc3)cc21 (centres unmarked) [Example 9, 1-(4-[2-[4-(2,4-Dioxothiazolidin-5-ylmethyl)phenoxymethyl]-1-methyl-1H-benzimidazol-6-yloxy]phenyl)-3-(cyclohexyl)thiourea]",47.1
22,"Cn1c(COc2ccc(CC3SC(=O)NC3=O)cc2)nc2ccc(Oc3ccc(CCNC(=O)Nc4ccc(C(F)(F)F)cc4)cc3)cc21 (centres unmarked) [Example 34, 1-[2-(4-[2-[4-(2,4-Dioxothiazolidin-5-ylmethyl)phenoxymethyl]-1-methyl-1H-benzimidazol-6-yloxy]phenyl)ethyl]-3-[4-(trifluoromethyl)phenyl]urea hydrochloride]",32.8
23,"Cn1c(COc2ccc(CC3SC(=O)NC3=O)cc2)nc2ccc(Oc3ccc(NC(=O)c4ccc(F)cc4F)cc3)cc21 (centres unmarked) [Example 57, 2,4-Difluoro-N-[4-[2-[4-(2,4-dioxothiazolidin-5-ylmethyl)phenoxymethyl]-1-methyl-1H-benzimidazol-6-yloxy]phenyl]benzamide]",57.3
24,"CCCCCCN(C(C)=O)c1ccc(Oc2ccc3nc(COc4ccc(CC5SC(=O)NC5=O)cc4)n(C)c3c2)cc1 (centres unmarked) [Example 61, N-[4-[2-[4-(2,4-Dioxothiazolidin-5-ylmethyl)phenoxymethyl]-1-methyl-1H-benzimidazol-6-yloxy]phenyl]-N-n-hexylacetamide hydrochloride]",54.2
25,"Cn1c(COc2ccc(CC3SC(=O)NC3=O)cc2)nc2ccc(Oc3ccc(NC(=O)Nc4ccc(F)cc4F)cc3)cc21 (centres unmarked) [Example 5, 1-(2,4-Difluorophenyl)-3-(4-[2-[4-(2,4-dioxothiazolidin-5-ylmethyl)phenoxymethyl]-1-methyl-1H-benzimidazol-6-yloxy]phenyl)urea]",36.2
26,"CC(C)c1cccc(C(C)C)c1NC(=O)Nc1cccc2ccc(Oc3ccc4nc(COc5ccc(CC6SC(=O)NC6=O)cc5)n(C)c4c3)cc12 (centres unmarked) [Example 40, 1-(2,6-Diisopropylphenyl)-3-[7-[2-[4-(2,4-dioxothiazolidin-5-ylmethyl)phenoxymethyl]-1-methyl-1H-benzimidazol-6yloxy]naphthalen-1-yl)urea]",59.3
